Measurements published in patent publication US9113629B2, “4-amino-6-(4-substituted-phenyl)-picolinates and 6-amino-2-(4-substituted-phenyl)-pyrimidine-4-carboxylates and their use as herbicides” (DOW AGROSCIENCES LLC, priority 2013, dated 2015).
Read-outs that look alike come from different tables or passages of the source.

What was measured:
[1] = test system: Key Broadleaf Weed and Crop Species; assay: Post-emergent Test II herbicidal activity (Table 5); assay type: in vivo; settings: post-emergence, 336 h, post-emergent, 14 days after application; for pest or weed control at 70 g/ha: 70 g ai/ha; for pest or weed control at 140 g/ha: 140 g ai/ha
Method in brief: (§1)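 Test species were raised 7–21 d under greenhouse conditions until reaching the first or second true leaf, sprayed with formulated compound at 187 L/ha, and kept subirrigated to avoid wash-off. Fourteen days later, damage was rated visually on a 0–100% scale against untreated plants.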

[2] = test system: Key Grass and Sedge Weeds as well as Grass Crops; assay: Post-emergent Test II herbicidal activity (Table 6); assay type: in vivo; settings: post-emergence, 336 h; for pest or weed control at 70 g/ha: application rate 70 g ai/ha; for pest or weed control at 140 g/ha: application rate 140 g ai/ha
Method in brief: as §1

[3] = ABUTH: velvetleaf (Abutilon theophrasti), read-out: Visual Growth Reduction (%) 14 Days After Application ABUTH
[4] = AMARE: redroot pigweed (Amaranthus retroflexus), read-out: Visual Growth Reduction (%) 14 Days After Application AMARE
[5] = BRSNN: oilseed-rape, canola (Brassica napus), read-out: Visual Growth Reduction (%) 14 Days After Application BRSNN
[6] = CHEAL: lambsquarters (Chenopodium album), read-out: Visual Growth Reduction (%) 14 Days After Application CHEAL
[7] = EPHHL: wild poinsettia (Euphorbia heterophylla), read-out: Visual Growth Reduction (%) 14 Days After Application EPHHL
[8] = HELAN: sunflower (Helianthus annuus), read-out: Visual Growth Reduction (%) 14 Days After Application HELAN
[9] = VIOTR: wild pansy (Viola tricolor), read-out: Visual Growth Reduction (%) 14 Days After Application VIOTR
[10] = CYPES: yellow nutsedge (Cyperus esculentus), read-out: Visual Growth Reduction (%) 14 Days After Application, CYPES
[11] = DIGSA: crabgrass (Digitaria sanguinalis), read-out: Visual Growth Reduction (%) 14 Days After Application, DIGSA
[12] = ECHCG: barnyardgrass (Echinochloa crus-galli), read-out: Visual Growth Reduction (%) 14 Days After Application, ECHCG
[13] = ORYSA: rice (Oryza sativa), read-out: Visual Growth Reduction (%) 14 Days After Application, ORYSA
[14] = SETFA: giant foxtail (Setaria faberi), read-out: Visual Growth Reduction (%) 14 Days After Application, SETFA
[15] = SORVU: grain sorghum (Sorghum vulgare), read-out: Visual Growth Reduction (%) 14 Days After Application, SORVU
[16] = TRZSS (wheat, Triticum aestivum), read-out: Visual Growth Reduction (%) 14 Days After Application, TRZSS
[17] = ZEAMX: maize, corn (Zea mays), read-out: Visual Growth Reduction (%) 14 Days After Application, ZEAMX

melting point: 168 to 171 °C
Compound: C=Cc1c(N)nc(-c2ccc(C(F)(F)F)c(F)c2)nc1C(=O)O [Compound 32, 6-Amino-2-(3-fluoro-4-(trifluoromethyl)phenyl)-5-vinylpyrimidine-4-carboxylic acid]
pest or weed control at 70 g/ha [1, 3]: 60 to 74% | pest or weed control at 140 g/ha [1, 3]: 60 to 74% | pest or weed control at 70 g/ha [1, 4]: 75 to 84% | pest or weed control at 140 g/ha [1, 4]: 95 to 100% | pest or weed control at 70 g/ha [1, 5]: 0 to 29% | pest or weed control at 140 g/ha [1, 5]: 45 to 59% | pest or weed control at 70 g/ha [1, 6]: 95 to 100% | pest or weed control at 140 g/ha [1, 6]: 95 to 100% | pest or weed control at 70 g/ha [1, 7]: 95 to 100% | pest or weed control at 140 g/ha [1, 7]: 95 to 100% | pest or weed control at 70 g/ha [1, 8]: 85 to 94% | pest or weed control at 140 g/ha [1, 8]: 85 to 94% | pest or weed control at 70 g/ha [1, 9]: 0 to 29% | pest or weed control at 140 g/ha [1, 9]: 0 to 29% | pest or weed control at 70 g/ha [2, 10]: 0 to 29% | pest or weed control at 140 g/ha [2, 10]: 45 to 59% | pest or weed control at 70 g/ha [2, 11]: 0 to 29% | pest or weed control at 140 g/ha [2, 11]: 0 to 29% | pest or weed control at 70 g/ha [2, 12]: 75 to 84% | pest or weed control at 140 g/ha [2, 12]: 75 to 84% | pest or weed control at 70 g/ha [2, 13]: 0 to 29% | pest or weed control at 140 g/ha [2, 13]: 0 to 29% | pest or weed control at 70 g/ha [2, 14]: 0 to 29% | pest or weed control at 140 g/ha [2, 14]: 0 to 29% | pest or weed control at 70 g/ha [2, 15]: 60 to 74% | pest or weed control at 140 g/ha [2, 15]: 60 to 74% | pest or weed control at 70 g/ha [2, 16]: 0 to 29% | pest or weed control at 140 g/ha [2, 16]: 0 to 29% | pest or weed control at 70 g/ha [2, 17]: 45 to 59% | pest or weed control at 140 g/ha [2, 17]: 60 to 74%
